According to US20190015400A1, “Antifungal Compositions” (priority 2017, published 2019):

Columns and labels:
[1] = tested on: C. albicans ATCC 64124 (strain F); test: MIC and checkerboard assay, azoles + compounds 1-5; type: cell-based, Candida albicans; settings: combination compound 2 + POS
Experimental: These compounds were serially diluted (two-fold dilutions) horizontally on the plate in 100 μL of RPMI medium. A diluted yeast culture (25 μL of a fungal stock with OD600 of 0.125 in 10 mL of RPMI medium, which achieves a final inoculum size of around 1-5×10^3 CFU/mL) was plated across the plate (100 μL per well), making a final volume of 200 μL total per well.
The appropriate range of concentrations for each compound was determined based on their corresponding MIC values against each fungal strain. The inoculum size for yeast and filamentous fungi were the same as in the MIC experiments described in section 2.2. The 96-well plates were incubated at 35° C. for 48 h for yeasts and 72 h for the Aspergillus strain before visual inspection for growth. […] The combinational effect of the two tested compounds were considered synergistic (abbreviated SYN) if FICI<0.5, additive (abbreviated ADD) if 0.5<FICI<4, and antagonistic if FICI>4 (TABLES 2-4).

[2] = tested on: C. albicans ATCC 64124 (strain F); test: Time-kill assay, azoles + compound 2; type: cell-based, Candida albicans; settings: drug alone at the concentration of the 8×MICcombo sample; 24 h
Experimental: Each sample was incubated at 35° C. with shaking at 200 rpm. At various time points (0, 3, 6, 9, 12, and 24 h), 100 μL aliquots were taken from each sample and serially diluted (10-fold dilutions) in sterile ddH2O. 100 μL of each dilution was spread onto PDA plates and incubated at 35° C. for 48 h before colony counts were determined (FIGS. 2A-B). At the end of the 24-h experiment, 50 μL of 1 mM sterile resazurin solution was added to each sample for visual comparison of growth. Each experiment was performed in duplicate.

[3] = tested on: C. albicans ATCC 64124 (strain F) biofilm; test: Biofilm disruption assay (XTT, SMIC99), azoles + compound 2; type: cell-based, Candida albicans
Experimental: In order to investigate the synergistic effect of azoles and our compounds on inhibiting biofilm formation of C. albicans ATCC 64124 (strain F), we performed a biofilm disruption assay in a checkerboard setup and used XTT [2,3-bis(2-methoxy-4-nitro-5-sulfophenyl)-2H-tetrazolium-5-carboxanilide] reduction to examine the metabolic activity of the biofilm. Briefly, C. albicans ATCC 64124 (strain F) was grown overnight in YEPD broth at 35° C. The culture was then diluted to an OD600 of 0.12 (equivalent to 1×10^6 CFU/mL) and 100 μL was placed into each well of a 96-well plate. The cells were incubated at 37° C. for 24 h for growth. The following day, the spent medium containing planktonic cells was aspirated and each wells were carefully washed three times with sterile phosphate buffer saline (PBS). […] The negative control (medium only) and the positive control (biofilm plus medium) wells were also included in the same 96-well plate. The plates were then incubated at 37° C. statically for additional 24 h and then washed with sterile PBS. 100 μL of a XTT (0.5 mg/mL)/menadione (1 μM) solution was added to each well, covered with aluminum foil, and incubated for 2 h at 37° C. Then, 80 μL of the colored supernatant from each well was transferred to a new 96-well plate, and the absorption was read at OD490. The percent metabolic activity of the formed biofilm at various drug concentration combinations was calculated by dividing the metabolic activity of biofilm formed for that well by that of the biofilm formed in the growth control well (in the absence of any drug). For these experiments, the sessile MIC (SMIC99) was determined, which is defined as the drug concentration required to inhibit the metabolic activity of biofilm by 99% compared to the growth control. The assay for each combination was performed in duplicates.

[4] = tested on: BEAS-2B cells; test: Mammalian cytotoxicity assay, azoles and compound 2; type: cell-based, human
Text: David K. Orren (University of Kentucky, Lexington, Ky.) and Prof. David J. Feola (University of Kentucky, Lexington, Ky.), respectively.

[5] = tested on: C. albicans ATCC 10231 (strain B) biofilm; test: Biofilm disruption assay (XTT, SMIC90), POS and EBA; type: cell-based, Candida albicans; settings: drug alone
Experimental: (§1) Biofilm disruption assays. […] Biofilm assays were performed in 96-well plates using XTT [2,3-bis(2-methoxy-4-nitro-5-sulfophenyl)-2H-tetrazolium-5-carboxanilide] to measure the viability of the biofilm as previously described. An overnight culture of yeast was grown at 35° C. in YEPD medium with shaking at 200 rpm. The overnight culture was diluted in RPMI 1640 medium to an OD600 between 0.12 and 0.15 to make a working stock. Working stock was transferred to the 96-well plate in 100 μL aliquots, leaving one column empty for the sterile control. The plates were incubated at 37° C. for 24 h to allow formation of the biofilm. The medium and planktonic cells from the plate were then aspirated. PBS was then used to wash any remaining planktonic cells off of the biofilm wells. 100 μL of PBS was aliquoted into wells and then removed. The wells were washed 3 times with PBS. […] Plates were incubated at 37° C. for 24 h. Finally, the plates were washed 3 times with PBS before adding 100 μL of XTT dye. The XTT was prepared by dissolving XTT at 0.5 mg/mL concentration in sterile PBS. Before adding to a plate, 1 μL of 10 mM menadione in acetone was added to 10 mL of the 0.5 mg/mL solution of XTT. After addition of XTT (containing menadione), the plates were incubated at 3 h at 37° C. in the dark. 80 μL of liquid from each well was transferred to a new plate. Plates were then read with a SpectraMax M5 plate reader (Molecular Devices, Sunnyvale, Calif., USA) for absorbance at 450 nm. For these experiments, we determined the sessile MIC (SMIC90), which is defined as the drug concentration required to inhibit the metabolic activity of biofilm by 90% compared to the growth control. The SMIC90 values were used to calculate the FICI as described above (TABLE 10). The plates used to determine the SMIC90 are provided in FIGS. 91A-H. Each assay was performed in duplicate.

[6] = tested on: C. albicans ATCC 64124 (strain F) biofilm; test: as above; type: cell-based, Candida albicans; settings: drug alone
Experimental: as §1

Compound: CC[C@@H]([C@H](C)O)n1ncn(-c2ccc(N3CCN(c4ccc(OC[C@@H]5CO[C@@](Cn6cncn6)(c6ccc(F)cc6F)C5)cc4)CC3)cc2)c1=O [POS, posaconazole]
- MIC in combination ([1]; MIC of the labelled drug): 4 µg/mL
- fold reduction in MIC (combination vs alone) ([1]; reduction for the labelled drug): 8 fold
- increase in CFU/mL [2]: about 1 order of magnitude
- SMIC alone (μg/mL) Azole ([3]; azole alone, sessile cells): >32 µg/mL
- SMIC combo (μg/mL) Azole ([3]; azole in combination with compound 2): 0.5 µg/mL
- cell survival ([4]; POS 8 μg/mL + 32 μg/mL compound 2): 71±11%
- cell survival ([4]; POS 16 μg/mL + 32 μg/mL compound 2): 38±6%
- SMIC90 [5]: > 32 µg/mL
- SMIC90 [6]: > 32 µg/mL
